Results taken from the supplement of paper PMC10307832.

What was measured:
Experiment in all cases: relative viability (nuclei count vs DMSO), 5 days (fraction); higher = more cells survive
NCI-H1915 = tested on: NCI-H1915
Procedure, shortened: (§1)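 Relative viability divides the nuclei count in treated wells by that in vehicle wells. Lung cancer cell lines were seeded in 1536-well plates, dosed by pin tool the next day, and fixed and stained after 5 days in one step with final 0.05% Triton X-100, 1% formaldehyde and 1 ug/ml Hoechst. Dosing was a single drug or a fixed anchor-drug dose plus five library-drug doses (not always all listed) in √10 steps, and values are medians of duplicate plates imaged at 4×.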

SW 900 = tested on: SW 900
Procedure, shortened: as §1

NCI-H1755 = tested on: NCI-H1755
Procedure, shortened: as §1

LCLC-103H = tested on: LCLC-103H
Procedure, shortened: as §1

NCI-H661 = tested on: NCI-H661
Procedure, shortened: as §1

NCI-H2347 = tested on: NCI-H2347
Procedure, shortened: as §1

NCI-H1651 = tested on: NCI-H1651
Procedure, shortened: as §1

NCI-H3122 = tested on: NCI-H3122
Procedure, shortened: as §1

NCI-H1792 = tested on: NCI-H1792
Procedure, shortened: as §1

NCI-H460 = tested on: NCI-H460
Procedure, shortened: as §1

PC-14 = tested on: PC-14
Procedure, shortened: as §1

LXF-289 = tested on: LXF-289
Procedure, shortened: as §1

NCI-H441 = tested on: NCI-H441
Procedure, shortened: as §1

SK-MES-1 = tested on: SK-MES-1
Procedure, shortened: as §1

RERF-LC-KJ = tested on: RERF-LC-KJ
Procedure, shortened: as §1

NCI-H650 = tested on: NCI-H650
Procedure, shortened: as §1

NCI-H596 = tested on: NCI-H596
Procedure, shortened: as §1

NCI-H520 = tested on: NCI-H520
Procedure, shortened: as §1

NCI-H322M = tested on: NCI-H322M
Procedure, shortened: as §1

NCI-H2170 = tested on: NCI-H2170
Procedure, shortened: as §1

NCI-H1563 = tested on: NCI-H1563
Procedure, shortened: as §1

NCI-H1355 = tested on: NCI-H1355
Procedure, shortened: as §1

NC(=O)Nc1cc(-c2cccc(F)c2)sc1C(=O)N[C@H]1CCCNC1 [AZD7762] + Nc1nc2[nH]cc(CCc3ccc(C(=O)N[C@@H](CCC(=O)O)C(=O)O)cc3)c2c(=O)[nH]1 [Pemetrexed] (partner 0.2 µM)
relative viability (NCI-H1915; first compound 0.01 µM): 0.434 | relative viability (NCI-H1915; first compound 0.03162 µM): 0.412 | relative viability (NCI-H1915; first compound 0.1 µM): 0.346 | relative viability (NCI-H1915; first compound 0.3162 µM): 0.264 | relative viability (NCI-H1915; first compound 1 µM): 0.217 | relative viability (SW 900; first compound 0.01 µM): 0.533 | relative viability (SW 900; first compound 0.03162 µM): 0.459 | relative viability (SW 900; first compound 0.1 µM): 0.452 | relative viability (SW 900; first compound 0.3162 µM): 0.475 | relative viability (SW 900; first compound 1 µM): 0.374 | relative viability (NCI-H1755; first compound 0.01 µM): 0.48 | relative viability (NCI-H1755; first compound 0.03162 µM): 0.441 | relative viability (NCI-H1755; first compound 0.1 µM): 0.401 | relative viability (NCI-H1755; first compound 0.3162 µM): 0.36 | relative viability (NCI-H1755; first compound 1 µM): 0.277 | relative viability (LCLC-103H; first compound 0.01 µM): 0.464 | relative viability (LCLC-103H; first compound 0.03162 µM): 0.498 | relative viability (LCLC-103H; first compound 0.1 µM): 0.45 | relative viability (LCLC-103H; first compound 0.3162 µM): 0.452 | relative viability (LCLC-103H; first compound 1 µM): 0.394 | relative viability (NCI-H661; first compound 0.01 µM): 0.935 | relative viability (NCI-H661; first compound 0.03162 µM): 0.739 | relative viability (NCI-H661; first compound 0.1 µM): 0.597 | relative viability (NCI-H661; first compound 0.3162 µM): 0.49 | relative viability (NCI-H661; first compound 1 µM): 0.426 | relative viability (NCI-H2347; first compound 0.01 µM): 0.448 | relative viability (NCI-H2347; first compound 0.03162 µM): 0.395 | relative viability (NCI-H2347; first compound 0.1 µM): 0.455 | relative viability (NCI-H2347; first compound 0.3162 µM): 0.403 | relative viability (NCI-H2347; first compound 1 µM): 0.329 | relative viability (NCI-H1651; first compound 0.01 µM): 0.624 | relative viability (NCI-H1651; first compound 0.03162 µM): 0.688 | relative viability (NCI-H1651; first compound 0.1 µM): 0.558 | relative viability (NCI-H1651; first compound 0.3162 µM): 0.385 | relative viability (NCI-H1651; first compound 1 µM): 0.259 | relative viability (NCI-H3122; first compound 0.01 µM): 0.19 | relative viability (NCI-H3122; first compound 0.03162 µM): 0.188 | relative viability (NCI-H3122; first compound 0.1 µM): 0.167 | relative viability (NCI-H3122; first compound 0.3162 µM): 0.16 | relative viability (NCI-H3122; first compound 1 µM): 0.139 | relative viability (NCI-H1792; first compound 0.01 µM): 0.957 | relative viability (NCI-H1792; first compound 0.03162 µM): 0.822 | relative viability (NCI-H1792; first compound 0.1 µM): 0.844 | relative viability (NCI-H1792; first compound 0.3162 µM): 0.732 | relative viability (NCI-H1792; first compound 1 µM): 0.421 | relative viability (NCI-H460; first compound 0.01 µM): 0.0576 | relative viability (NCI-H460; first compound 0.03162 µM): 0.0605 | relative viability (NCI-H460; first compound 0.1 µM): 0.0567 | relative viability (NCI-H460; first compound 0.3162 µM): 0.0462 | relative viability (NCI-H460; first compound 1 µM): 0.0366 | relative viability (PC-14; first compound 0.01 µM): 0.133 | relative viability (PC-14; first compound 0.03162 µM): 0.0943 | relative viability (PC-14; first compound 0.1 µM): 0.0891 | relative viability (PC-14; first compound 0.3162 µM): 0.0706 | relative viability (PC-14; first compound 1 µM): 0.0517 | relative viability (LXF-289; first compound 0.01 µM): 0.817 | relative viability (LXF-289; first compound 0.03162 µM): 0.864 | relative viability (LXF-289; first compound 0.1 µM): 0.949 | relative viability (LXF-289; first compound 0.3162 µM): 0.803 | relative viability (LXF-289; first compound 1 µM): 0.626 | relative viability (NCI-H441; first compound 0.01 µM): 0.267 | relative viability (NCI-H441; first compound 0.03162 µM): 0.288 | relative viability (NCI-H441; first compound 0.1 µM): 0.294 | relative viability (NCI-H441; first compound 0.3162 µM): 0.275 | relative viability (NCI-H441; first compound 1 µM): 0.271 | relative viability (SK-MES-1; first compound 0.01 µM): 1.01 | relative viability (SK-MES-1; first compound 0.03162 µM): 0.914 | relative viability (SK-MES-1; first compound 0.1 µM): 0.86 | relative viability (SK-MES-1; first compound 0.3162 µM): 0.433 | relative viability (SK-MES-1; first compound 1 µM): 0.237 | relative viability (RERF-LC-KJ; first compound 0.01 µM): 0.48 | relative viability (RERF-LC-KJ; first compound 0.03162 µM): 0.461 | relative viability (RERF-LC-KJ; first compound 0.1 µM): 0.441 | relative viability (RERF-LC-KJ; first compound 0.3162 µM): 0.399 | relative viability (RERF-LC-KJ; first compound 1 µM): 0.392 | relative viability (NCI-H650; first compound 0.01 µM): 1.01 | relative viability (NCI-H650; first compound 0.03162 µM): 0.891 | relative viability (NCI-H650; first compound 0.1 µM): 0.968 | relative viability (NCI-H650; first compound 0.3162 µM): 0.821 | relative viability (NCI-H650; first compound 1 µM): 0.644 | relative viability (NCI-H596; first compound 0.01 µM): 0.484 | relative viability (NCI-H596; first compound 0.03162 µM): 0.573 | relative viability (NCI-H596; first compound 0.1 µM): 0.54 | relative viability (NCI-H596; first compound 0.3162 µM): 0.425 | relative viability (NCI-H596; first compound 1 µM): 0.393 | relative viability (NCI-H520; first compound 0.01 µM): 0.761 | relative viability (NCI-H520; first compound 0.03162 µM): 0.458 | relative viability (NCI-H520; first compound 0.1 µM): 0.421 | relative viability (NCI-H520; first compound 0.3162 µM): 0.175 | relative viability (NCI-H520; first compound 1 µM): 0.17 | relative viability (NCI-H322M; first compound 0.01 µM): 0.595 | relative viability (NCI-H322M; first compound 0.03162 µM): 0.617 | relative viability (NCI-H322M; first compound 0.1 µM): 0.571 | relative viability (NCI-H322M; first compound 0.3162 µM): 0.542 | relative viability (NCI-H322M; first compound 1 µM): 0.379 | relative viability (NCI-H2170; first compound 0.01 µM): 0.272 | relative viability (NCI-H2170; first compound 0.03162 µM): 0.264 | relative viability (NCI-H2170; first compound 0.1 µM): 0.285 | relative viability (NCI-H2170; first compound 0.3162 µM): 0.236 | relative viability (NCI-H2170; first compound 1 µM): 0.21 | relative viability (NCI-H1563; first compound 0.01 µM): 0.853 | relative viability (NCI-H1563; first compound 0.03162 µM): 0.997 | relative viability (NCI-H1563; first compound 0.1 µM): 0.84 | relative viability (NCI-H1563; first compound 0.3162 µM): 0.693 | relative viability (NCI-H1563; first compound 1 µM): 0.765 | relative viability (NCI-H1355; first compound 0.01 µM): 1.07 | relative viability (NCI-H1355; first compound 0.03162 µM): 1.03 | relative viability (NCI-H1355; first compound 0.1 µM): 1.08 | relative viability (NCI-H1355; first compound 0.3162 µM): 0.708 | relative viability (NCI-H1355; first compound 1 µM): 0.709
